Results reported in patent US20180153995A1, “USE OF ANTIMICROBIAL POLYMERS FOR RE-SENSITIZATION OF MICROORGANISMS UPON EMERGENCE OF RESISTANCE TO ANTI-MICROBIAL AGENTS” (Technion Research & Development Foundation Limited, priority 2008, published 2018).
Where two headings read alike, the source gives them in different places.

Experiments:
E. coli 16329 = type: cell-based, Escherichia coli; details: E. coli U-16329
Summary of the method: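 Bacterial suspensions (100 μl) were added to 100 μl of culture medium carrying 2-fold serially diluted antibiotic together with a fraction of the polymer's MIC, or to plain medium as control. Plates were incubated 24 hours at 37° C, and proliferation was read at 620 nm against calibration standards. Starting inoculum was 10^5 bacteria per ml.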

[1] = tested on: E. coli K-12 resistant wild type; type: cell-based, Escherichia coli; details: E. coli AG100 (w.t.)
S. aureus 15877 = experiment: Antibiotic MIC by microdilution with or without sub-MIC polymer; type: cell-based, Staphylococcus aureus
[2] = tested on: E. coli K-12 efflux knockout mutant; type: cell-based, Escherichia coli; details: E. coli AG100A (efflux−)
Summary of the method: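 Broth microdilution, inocula 10^5 bacteria/ml, 24 h at 37 °C. Growth read as OD620 against calibration standards.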

S. aureus 17314 = experiment: Antibiotic MIC by microdilution with or without sub-MIC polymer; type: cell-based, Staphylococcus aureus
E. coli 16327 = experiment: microbe, parasite or virus in culture
S. maltophila 748 = experiment: Antibiotic MIC by microdilution with or without sub-MIC polymer; type: cell-based, Stenotrophomonas maltophila
[3] = polymer at ¼ of its MIC (Table 16)
[4] = polymer at ½ of its MIC (Table 16)
[5] = polymer at ⅓ of its MIC (Table 16)
[6] = the OAK at ¼ of its MIC (Table 17)
[7] = the OAK at ½ of its MIC (Table 17)
[8] = the OAK at ⅓ of its MIC (Table 17)

In the case of CC1(C)S[C@@H]2[C@H](NC(=O)Cc3ccccc3)C(=O)N2[C@H]1C(=O)O [Penicillin G, penicillin G], the “Antibiotic MIC in presence of C12K(NC8K)7NH2 (SEQ ID NO: 4), +¼ MIC” value (“Antibiotic MIC … (SEQ ID NO: 4), +¼ MIC” below) (E. coli 16329; polymer at ¼ of its MIC) is reported as 256 µg/mL, the “Antibiotic MIC in presence of C12K(NC8K)7NH2 (SEQ ID NO: 4), +½ MIC” value (from here on “Antibiotic MIC … (SEQ ID NO: 4), +½ MIC”) (E. coli 16329; polymer at ½ of its MIC) is reported as 128 to 256 µg/mL and the “Antibiotic MIC in presence of C12K(NC8K)7NH2 (SEQ ID NO: 4), +⅓ MIC” value (shortened to “Antibiotic MIC … (SEQ ID NO: 4), +⅓ MIC”) (E. coli 16329; polymer at ⅓ of its MIC) is reported as 128 to 256 µg/mL. For the same compound, the “Antibiotic MIC, None” value ([1]; antibiotic alone (Table 16)) was 32 µg/mL, the “Antibiotic MIC, None” value ([1]; antibiotic alone (Table 17)) was 32 µg/mL and the “Antibiotic MIC … (SEQ ID NO: 4), +¼ MIC” value [1, 3] was 16 to 32 µg/mL. For the same compound, the “Antibiotic MIC … (SEQ ID NO: 4), +½ MIC” value [1, 4] was 8 µg/mL, the “Antibiotic MIC … (SEQ ID NO: 4), +⅓ MIC” value [1, 5] was 8 to 16 µg/mL and the “Antibiotic MIC in presence of the OAK, +¼ MIC” value [1, 6] was 16 µg/mL. The “Antibiotic MIC in presence of the OAK, +½ MIC” value [1, 7] was 8 µg/mL, the “Antibiotic MIC in presence of the OAK, +⅓ MIC” value [1, 8] was 16 µg/mL and the “Antibiotic MIC” value (S. aureus 15877; +¼ MIC (1.6 μM) C12(5-ene)KKNC12KNH2) was 8 µg/mL. The “Antibiotic MIC” value (S. aureus 15877; +½ MIC (3.12 μM) C12(5-ene)KKNC12KNH2) was 8 µg/mL, the “Antibiotic MIC” value (S. aureus 15877; +⅓ MIC (2.1 μM) C12(5-ene)KKNC12KNH2) was 8 µg/mL and the “Antibiotic MIC” value (S. aureus 15877; no polymer (None), Table 8) was 8 µg/mL. The “Antibiotic MIC, None” value ([2]; antibiotic alone (Table 16)) was 8 µg/mL, the “Antibiotic MIC, None” value ([2]; antibiotic alone (Table 17)) was 8 µg/mL and the “Antibiotic MIC … (SEQ ID NO: 4), +¼ MIC” value [2, 3] was 8 µg/mL. For the same compound, the “Antibiotic MIC … (SEQ ID NO: 4), +½ MIC” value [2, 4] was 4 µg/mL, the “Antibiotic MIC … (SEQ ID NO: 4), +⅓ MIC” value [2, 5] was 8 µg/mL and the “Antibiotic MIC in presence of the OAK, +¼ MIC” value [2, 6] was 4 to 8 µg/mL. For the same compound, the “Antibiotic MIC in presence of the OAK, +½ MIC” value [2, 7] was 4 µg/mL, the “Antibiotic MIC in presence of the OAK, +⅓ MIC” value [2, 8] was 4 to 8 µg/mL and the “Antibiotic MIC” value (S. aureus 17314) was 64 to 128 µg/mL. For the same compound, the “Antibiotic MIC” value (S. aureus 17314; S. aureus 17314, +¼ MIC (1.6 μM) C12K(KNC12K)2NH2) was 128 µg/mL, the “Antibiotic MIC” value (S. aureus 17314; S. aureus 17314, +¼ MIC (1.6 μM) C14(9-ene)KKNC12KNH2) was 8 µg/mL and the “Antibiotic MIC” value (S. aureus 17314; S. aureus 17314, +¼ MIC (1.6 μM) C16(9-ene)KKNC12KNH2) was 2 µg/mL. For the same compound, the “Antibiotic MIC” value (S. aureus 17314; S. aureus 17314, +½ MIC (3.12 μM) C12K(KNC12K)2NH2) was 64 µg/mL, the “Antibiotic MIC” value (S. aureus 17314; S. aureus 17314, +½ MIC (3.12 μM) C12KKNC12KNH2) was 64 µg/mL and the “Antibiotic MIC” value (S. aureus 17314; S. aureus 17314, +½ MIC (3.12 μM) C14(9-ene)KKNC12KNH2) was 6 µg/mL. The “Antibiotic MIC” value (S. aureus 17314; S. aureus 17314, +½ MIC (3.12 μM) C16(9-ene)KKNC12KNH2) was 0.5 µg/mL, the “Antibiotic MIC” value (S. aureus 17314; S. aureus 17314, +⅓ MIC (2.1 μM) C12K(KNC12K)2NH2) was 128 µg/mL and the “Antibiotic MIC” value (S. aureus 17314; S. aureus 17314, +⅓ MIC (2.1 μM) C14(9-ene)KKNC12KNH2) was 8 µg/mL. For the same compound, the “Antibiotic MIC” value (S. aureus 17314; S. aureus 17314, +⅓ MIC (2.1 μM) C16(9-ene)KKNC12KNH2) was 1 µg/mL, the “Antibiotic MIC” value (S. aureus 17314; S. aureus 17314, no polymer (None), Table 9) was 8 µg/mL and the “Antibiotic MIC” value (S. aureus 17314; S. aureus 17314, no polymer (None), Table 10) was 8 to 16 µg/mL. For the same compound, the “Antibiotic MIC” value (S. aureus 17314; S. aureus 17314, no polymer (None), Table 11) was 128 µg/mL, the “Antibiotic MIC” value (S. aureus 17314; S. aureus 17314, no polymer (None), Table 12) was 128 µg/mL and the “Antibiotic MIC” value (E. coli 16327) was greater than 512 µg/mL. The “Antibiotic MIC” value (E. coli 16327; E. coli 16327, +¼ MIC (1.6 μM) C12K(KNC12K)2NH2) was greater than 512 µg/mL, the “Antibiotic MIC” value (E. coli 16327; E. coli 16327, +½ MIC (3.12 μM) C12K(KNC12K)2NH2) was greater than 512 µg/mL and the “Antibiotic MIC” value (E. coli 16327; E. coli 16327, +⅓ MIC (2.1 μM) C12K(KNC12K)2NH2) was greater than 512 µg/mL. The “Antibiotic MIC” value (E. coli 16327; E. coli 16327, no polymer (None), Table 9) was greater than 512 µg/mL, the “Antibiotic MIC” value (E. coli 16327; E. coli 16327, no polymer (None), Table 10) was greater than 512 µg/mL and the “Antibiotic MIC” value (E. coli 16327; E. coli 16327, no polymer (None), Table 12) was greater than 512 µg/mL. The “MIC, Alone” value (E. coli 16327; E. coli U16327, antibiotic alone (Table 22)) was greater than 512 µg/mL, the “MIC, ¼ + MIC OAK” value (E. coli 16327; E. coli U16327, with C12K(KNC10K)3NH2 (SEQ ID NO: 10) at ¼ of its MIC) was greater than 512 µg/mL and the “MIC, ½ + MIC OAK” value (E. coli 16327; E. coli U16327, with C12K(KNC10K)3NH2 (SEQ ID NO: 10) at ½ of its MIC) was 512 µg/mL. For the same compound, the “MIC, ⅓ + MIC OAK” value (E. coli 16327; E. coli U16327, with C12K(KNC10K)3NH2 (SEQ ID NO: 10) at ⅓ of its MIC) was greater than 512 µg/mL, the “Antibiotic MIC, None” value (E. coli 16327; E. coli U-16327, antibiotic alone (Table 15)) was greater than 512 µg/mL and the “Antibiotic MIC … (SEQ ID NO: 4), +¼ MIC” value (E. coli 16327; E. coli U-16327, polymer at ¼ of its MIC) was greater than 512 µg/mL. The “Antibiotic MIC … (SEQ ID NO: 4), +½ MIC” value (E. coli 16327; E. coli U-16327, polymer at ½ of its MIC) was 512 µg/mL, the “Antibiotic MIC … (SEQ ID NO: 4), +⅓ MIC” value (E. coli 16327; E. coli U-16327, polymer at ⅓ of its MIC) was greater than 512 µg/mL and the “Antibiotic MIC” value (S. maltophila 748; +¼ MIC (1.6 μM) C12K(KNC12K)3NH2) was 512 µg/mL. For the same compound, the “Antibiotic MIC” value (S. maltophila 748; +½ MIC (3.12 μM) C12K(KNC12K)3NH2) was 128 µg/mL, the “Antibiotic MIC” value (S. maltophila 748; +⅓ MIC (2.1 μM) C12K(KNC12K)3NH2) was 256 to 512 µg/mL and the “Antibiotic MIC” value (S. maltophila 748; no polymer (None), Table 13) was 512 µg/mL.
